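Five concentrations, 48 hours, 96-well plates. GI50 marks 50% less growth. TGI marks complete inhibition of growth.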
Assays:
Assay in all cases: DTP human tumour cell line panel, 48 h
RXF 393 renal = tested on: RXF 393 renal
EKVX NSCLC = tested on: EKVX NSCLC
SR leukemia = tested on: SR leukemia
SF-539 CNS = tested on: SF-539 CNS
A549 NSCLC = tested on: A549 NSCLC
786-0 renal = tested on: 786-0 renal
SK-MEL-5 melanoma = tested on: SK-MEL-5 melanoma
OVCAR-4 ovarian = tested on: OVCAR-4 ovarian
SK-OV-3 ovarian = tested on: SK-OV-3 ovarian
CAKI-1 renal = tested on: CAKI-1 renal
HCC-2998 colon = tested on: HCC-2998 colon
NCI-H522 lung = tested on: NCI-H522 lung
SN12C renal = tested on: SN12C renal
UO-31 renal = tested on: UO-31 renal
MCF7 breast = tested on: MCF7 breast
K-562 leukemia = tested on: K-562 leukemia
HCT-116 colon = tested on: HCT-116 colon
SW-620 colon = tested on: SW-620 colon
CCRF-CEM leukemia = tested on: CCRF-CEM leukemia
A498 renal = tested on: A498 renal
SF-268 CNS = tested on: SF-268 CNS
PC-3 prostate = tested on: PC-3 prostate
OVCAR-8 ovarian = tested on: OVCAR-8 ovarian
IGROV1 ovarian = tested on: IGROV1 ovarian
SF-295 CNS = tested on: SF-295 CNS
HT29 colon = tested on: HT29 colon
MDA-N = tested on: MDA-N
HOP-62 NSCLC = tested on: HOP-62 NSCLC
NCI-H23 lung = tested on: NCI-H23 lung
HL-60(TB) leukemia = tested on: HL-60(TB) leukemia
HCT-15 colon = tested on: HCT-15 colon
OVCAR-3 ovarian = tested on: OVCAR-3 ovarian
MOLT-4 leukemia = tested on: MOLT-4 leukemia
HS 578T breast = tested on: HS 578T breast
UACC-62 melanoma = tested on: UACC-62 melanoma
NCI-H226 lung = tested on: NCI-H226 lung
BT-549 breast = tested on: BT-549 breast
OVCAR-5 ovarian = tested on: OVCAR-5 ovarian
RPMI-8226 leukemia = tested on: RPMI-8226 leukemia
SNB-75 CNS = tested on: SNB-75 CNS
MDA-MB-435 = tested on: MDA-MB-435
NCI/ADR-RES ovarian = tested on: NCI/ADR-RES ovarian
SNB-19 CNS = tested on: SNB-19 CNS
MALME-3M melanoma = tested on: MALME-3M melanoma
COLO 205 colon = tested on: COLO 205 colon
TK-10 renal = tested on: TK-10 renal
SK-MEL-2 melanoma = tested on: SK-MEL-2 melanoma
SK-MEL-28 melanoma = tested on: SK-MEL-28 melanoma
KM12 colon = tested on: KM12 colon
ACHN renal = tested on: ACHN renal
T-47D breast = tested on: T-47D breast
LOX IMVI melanoma = tested on: LOX IMVI melanoma
NCI-H460 lung = tested on: NCI-H460 lung
HOP-92 NSCLC = tested on: HOP-92 NSCLC
DU-145 prostate = tested on: DU-145 prostate
UACC-257 melanoma = tested on: UACC-257 melanoma
U251 CNS = tested on: U251 CNS
MDA-MB-231 breast = tested on: MDA-MB-231 breast
M14 melanoma = tested on: M14 melanoma

## COc1cc2cc(C(=O)Nc3cc(N)c4ccccc4c3CCCl)[nH]c2c(OC)c1OC
RXF 393 renal
  GI50: 0.00875 µM
  TGI: 0.0219 µM
EKVX NSCLC
  GI50: 0.0993 µM
  TGI: 0.517 µM
SR leukemia
  GI50: < 0.005 µM
  TGI: 0.0804 µM
SF-539 CNS
  GI50: 0.161 µM
  TGI: > 50 µM
A549 NSCLC
  GI50: 0.116 µM
  TGI: > 50 µM
786-0 renal
  GI50: < 0.005 µM
  TGI: 1.09 µM
SK-MEL-5 melanoma
  GI50: 0.0688 µM
  TGI: 0.195 µM
OVCAR-4 ovarian
  GI50: 0.0733 µM
  TGI: 0.325 µM
SK-OV-3 ovarian
  GI50: 0.0603 µM
CAKI-1 renal
  GI50: 0.0193 µM
HCC-2998 colon
  GI50: 0.00922 µM
  TGI: 0.034 µM
NCI-H522 lung
  GI50: 0.0153 µM
  TGI: 0.271 µM
SN12C renal
  GI50: 0.0548 µM
  TGI: 0.611 µM
UO-31 renal
  GI50: 0.0353 µM
  TGI: 41.2 µM
MCF7 breast
  GI50: 0.00869 µM
  TGI: 0.374 µM
K-562 leukemia
  GI50: 0.0466 µM
  TGI: 2.5 µM
HCT-116 colon
  GI50: 0.0177 µM
  TGI: 5.83 µM
SW-620 colon
  GI50: 0.016 µM
  TGI: > 18.3 µM
CCRF-CEM leukemia
  GI50: < 0.005 µM
  TGI: 0.188 µM
A498 renal
  GI50: 0.0271 µM
  TGI: 0.19 µM
SF-268 CNS
  GI50: 0.017 µM
  TGI: 6.87 µM
PC-3 prostate
  GI50: 0.0252 µM
  TGI: 1.59 µM
OVCAR-8 ovarian
  GI50: 0.0191 µM
  TGI: 0.841 µM
IGROV1 ovarian
  GI50: 0.0146 µM
  TGI: 3.51 µM
SF-295 CNS
  GI50: 0.016 µM
  TGI: > 16.5 µM
HT29 colon
  GI50: 0.0438 µM
  TGI: 12.7 µM
MDA-N
  GI50: 0.0568 µM
  TGI: 0.219 µM
HOP-62 NSCLC
  GI50: 0.0244 µM
  TGI: 0.165 µM
NCI-H23 lung
  GI50: 0.0166 µM
  TGI: 0.264 µM
HL-60(TB) leukemia
  GI50: 0.0361 µM
  TGI: 0.237 µM
HCT-15 colon
  GI50: 0.0382 µM
OVCAR-3 ovarian
  GI50: 0.0262 µM
MOLT-4 leukemia
  GI50: 0.0132 µM
HS 578T breast
  GI50: 0.0899 µM
  TGI: > 50 µM
UACC-62 melanoma
  GI50: 0.0717 µM
  TGI: 0.154 µM
NCI-H226 lung
  GI50: 0.115 µM
  TGI: 0.308 µM
BT-549 breast
  GI50: 0.121 µM
  TGI: 0.804 µM
OVCAR-5 ovarian
  GI50: 0.0533 µM
  TGI: 2.13 µM
RPMI-8226 leukemia
  GI50: < 0.021 µM
  TGI: 0.189 µM
SNB-75 CNS
  GI50: 0.0656 µM
  TGI: 0.202 µM
MDA-MB-435
  GI50: 0.0483 µM
  TGI: 0.159 µM
NCI/ADR-RES ovarian
  GI50: 0.0329 µM
  TGI: 1.91 µM
SNB-19 CNS
  GI50: 0.122 µM
  TGI: > 10.2 µM
MALME-3M melanoma
  GI50: 0.119 µM
  TGI: 0.274 µM
COLO 205 colon
  GI50: 0.0694 µM
  TGI: 0.254 µM
TK-10 renal
  GI50: 0.0932 µM
  TGI: 6.36 µM
SK-MEL-2 melanoma
  GI50: 0.0895 µM
  TGI: 0.174 µM
SK-MEL-28 melanoma
  GI50: 0.0923 µM
KM12 colon
  GI50: 0.0411 µM
  TGI: 0.667 µM
ACHN renal
  GI50: 0.0184 µM
  TGI: 0.13 µM
T-47D breast
  GI50: 0.0372 µM
  TGI: 0.237 µM
LOX IMVI melanoma
  GI50: 0.0301 µM
  TGI: 1.53 µM
NCI-H460 lung
  GI50: 0.00913 µM
  TGI: 0.0396 µM
HOP-92 NSCLC
  GI50: 0.167 µM
  TGI: 11.8 µM
DU-145 prostate
  GI50: 0.00895 µM
  TGI: 0.339 µM

## O=c1[nH]nc(Cc2ccccc2)n1/N=C/c1ccccc1Cl
RXF 393 renal
  TGI: 48.5 µM
EKVX NSCLC
  TGI: > 100 µM
SR leukemia
  TGI: > 100 µM
SF-539 CNS
  TGI: > 100 µM
A549 NSCLC
  TGI: > 100 µM
786-0 renal
  TGI: > 100 µM
SK-MEL-5 melanoma
  TGI: > 100 µM
OVCAR-4 ovarian
  TGI: > 100 µM
SK-OV-3 ovarian
  TGI: > 100 µM
CAKI-1 renal
  TGI: > 100 µM
UACC-257 melanoma
  TGI: > 100 µM
HCC-2998 colon
  TGI: > 100 µM
NCI-H522 lung
  TGI: > 100 µM
SN12C renal
  TGI: > 100 µM
UO-31 renal
  TGI: > 100 µM
MCF7 breast
  TGI: > 100 µM
K-562 leukemia
  TGI: > 100 µM
U251 CNS
  TGI: > 100 µM
HCT-116 colon
  TGI: > 100 µM
SW-620 colon
  TGI: > 100 µM
A498 renal
  TGI: > 100 µM
SF-268 CNS
  TGI: > 100 µM
PC-3 prostate
  TGI: > 100 µM
OVCAR-8 ovarian
  TGI: > 100 µM
IGROV1 ovarian
  TGI: > 100 µM
SF-295 CNS
  TGI: > 100 µM
HT29 colon
  TGI: > 100 µM
MDA-N
  TGI: > 100 µM
NCI-H23 lung
  TGI: > 100 µM
HCT-15 colon
  TGI: > 100 µM
OVCAR-3 ovarian
  TGI: > 100 µM
MOLT-4 leukemia
  TGI: > 100 µM
HS 578T breast
  TGI: > 100 µM
UACC-62 melanoma
  TGI: > 100 µM
NCI-H226 lung
  TGI: > 100 µM
BT-549 breast
  TGI: > 100 µM
MDA-MB-231 breast
  TGI: > 100 µM
OVCAR-5 ovarian
  TGI: > 100 µM
RPMI-8226 leukemia
  TGI: > 100 µM
MDA-MB-435
  TGI: > 100 µM
NCI/ADR-RES ovarian
  TGI: > 100 µM
SNB-19 CNS
  TGI: > 100 µM
MALME-3M melanoma
  TGI: > 100 µM
COLO 205 colon
  TGI: > 100 µM
TK-10 renal
  TGI: > 100 µM
SK-MEL-2 melanoma
  TGI: > 100 µM
KM12 colon
  TGI: > 100 µM
ACHN renal
  TGI: > 100 µM
T-47D breast
  TGI: > 100 µM
LOX IMVI melanoma
  TGI: > 100 µM
NCI-H460 lung
  TGI: > 100 µM
HOP-92 NSCLC
  TGI: > 100 µM
DU-145 prostate
  TGI: > 100 µM

## CCN(CC)C(=S)SNCc1ccc(S(N)(=O)=O)cc1
RXF 393 renal
  TGI: 45.9 µM
EKVX NSCLC
  TGI: 43.5 µM
SR leukemia
  TGI: > 64.6 µM
SF-539 CNS
  TGI: 32.1 µM
A549 NSCLC
  TGI: 26.3 µM
786-0 renal
  TGI: 28 µM
SK-MEL-5 melanoma
  TGI: 36.2 µM
OVCAR-4 ovarian
  TGI: 48.1 µM
SK-OV-3 ovarian
  TGI: > 86 µM
CAKI-1 renal
  TGI: 31.3 µM
UACC-257 melanoma
  TGI: 33.5 µM
HCC-2998 colon
  TGI: > 100 µM
NCI-H522 lung
  TGI: 22.2 µM
SN12C renal
  TGI: 28.9 µM
UO-31 renal
  TGI: 28.8 µM
K-562 leukemia
  TGI: > 100 µM
U251 CNS
  TGI: 15.8 µM
HCT-116 colon
  TGI: 27.4 µM
SW-620 colon
  TGI: > 50.1 µM
A498 renal
  TGI: > 100 µM
SF-268 CNS
  TGI: 26.7 µM
PC-3 prostate
  TGI: 26.1 µM
OVCAR-8 ovarian
  TGI: 28.4 µM
IGROV1 ovarian
  TGI: 26.6 µM
SF-295 CNS
  TGI: 34.9 µM
HT29 colon
  TGI: 21 µM
MDA-N
  TGI: 29 µM
HOP-62 NSCLC
  TGI: 30.5 µM
NCI-H23 lung
  TGI: 44.3 µM
HL-60(TB) leukemia
  TGI: 22.8 µM
HCT-15 colon
  TGI: 58 µM
OVCAR-3 ovarian
  TGI: 27.5 µM
MOLT-4 leukemia
  TGI: > 62.2 µM
HS 578T breast
  TGI: 50.4 µM
UACC-62 melanoma
  TGI: 83.1 µM
NCI-H226 lung
  TGI: > 63.2 µM
BT-549 breast
  TGI: 33 µM
MDA-MB-231 breast
  TGI: 37.1 µM
OVCAR-5 ovarian
  TGI: 29.9 µM
RPMI-8226 leukemia
  TGI: 22.8 µM
SNB-75 CNS
  TGI: 39.5 µM
MDA-MB-435
  TGI: > 50.9 µM
NCI/ADR-RES ovarian
  TGI: 41.8 µM
SNB-19 CNS
  TGI: 34.1 µM
MALME-3M melanoma
  TGI: 30.9 µM
COLO 205 colon
  TGI: 27.7 µM
M14 melanoma
  TGI: 25.1 µM
TK-10 renal
  TGI: > 66 µM
SK-MEL-2 melanoma
  TGI: 39.5 µM
SK-MEL-28 melanoma
  TGI: > 48.9 µM
KM12 colon
  TGI: 29.2 µM
ACHN renal
  TGI: 29.6 µM
T-47D breast
  TGI: 47.7 µM
LOX IMVI melanoma
  TGI: 28.8 µM
NCI-H460 lung
  TGI: 34.4 µM
HOP-92 NSCLC
  TGI: 45.7 µM
DU-145 prostate
  TGI: 33.4 µM
